Test results from PubChem BioAssay (NCI).
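All cell lines were grown in 96-well plates and treated with compound for 48 hours. TGI: total growth inhibition.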

What was measured:
Test in all cases: DTP human tumour cell line panel, 48 h
SW-620 colon = tested on: SW-620 colon
HCC-2998 colon = tested on: HCC-2998 colon
HCT-116 colon = tested on: HCT-116 colon
786-0 renal = tested on: 786-0 renal
HCT-15 colon = tested on: HCT-15 colon
MCF7 breast = tested on: MCF7 breast
OVCAR-3 ovarian = tested on: OVCAR-3 ovarian
KM12 colon = tested on: KM12 colon
NCI-H460 lung = tested on: NCI-H460 lung
IGROV1 ovarian = tested on: IGROV1 ovarian
A549 NSCLC = tested on: A549 NSCLC
UO-31 renal = tested on: UO-31 renal
NCI/ADR-RES ovarian = tested on: NCI/ADR-RES ovarian
SK-OV-3 ovarian = tested on: SK-OV-3 ovarian
T-47D breast = tested on: T-47D breast
ACHN renal = tested on: ACHN renal
SN12C renal = tested on: SN12C renal
SNB-19 CNS = tested on: SNB-19 CNS
MDA-N = tested on: MDA-N

Row | Compound | TGI (SW-620 colon) [µM] | TGI (HCC-2998 colon) [µM] | TGI (HCT-116 colon) [µM] | TGI (786-0 renal) [µM] | TGI (HCT-15 colon) [µM] | TGI (MCF7 breast) [µM] | TGI (OVCAR-3 ovarian) [µM] | TGI (KM12 colon) [µM] | TGI (NCI-H460 lung) [µM] | TGI (IGROV1 ovarian) [µM] | TGI (A549 NSCLC) [µM] | TGI (UO-31 renal) [µM] | TGI (NCI/ADR-RES ovarian) [µM] | TGI (SK-OV-3 ovarian) [µM] | TGI (T-47D breast) [µM] | TGI (ACHN renal) [µM] | TGI (SN12C renal) [µM] | TGI (SNB-19 CNS) [µM] | TGI (MDA-N) [µM]
1 | CCOC(=O)c1nc2ccccc2nc1NCc1ccc(OC)cc1 | > 100 | > 100 | > 100 | > 100 | > 100 | > 100 | > 100 | > 100 | > 100 | > 100 | > 100 | > 100 | > 100 | > 100 | > 100 | > 100 |  |  | 
2 | Cc1ccc(S(=O)(=O)OC2=C/C(=N\c3onc(C)c3C)c3ccccc3C2=O)cc1 | 80.1 |  | 37.7 | > 100 | > 100 | 33.5 | 30.1 | 43 | > 100 |  | > 100 | 30.7 | 77.1 | > 100 | 64.8 | > 100 | 37.4 | 64.8 | > 100
3 | CCc1ccc(Nc2cc(=O)[nH]c(SCc3ccccc3)n2)cc1 | > 100 |  | > 100 | > 100 | > 100 | > 100 | > 100 | > 100 |  | > 100 | > 100 | > 100 | > 100 | > 100 | > 100 | > 100 | > 100 | > 100 | > 100
4 | OC(c1cccnc1)C(F)(F)c1nc2ccccc2o1 (centres undefined) | > 100 | > 100 | > 100 | > 100 | > 100 | > 100 |  | > 100 | > 100 | > 100 |  | > 100 | > 100 |  | > 100 | > 100 |  | > 100 | 
5 | CCOP(=O)(OCC)C1CC(O)CN1OC(=O)C(C)(C)C (centres undefined) | > 100 |  | > 100 | > 100 | > 100 | > 100 | > 100 | > 100 |  | > 100 | > 100 | > 100 | > 100 | > 100 |  | > 100 | > 100 | > 100 | > 100
6 | COC(=O)C[C@@H]1C(C)(C)[C@@H]2O[C@@]34C[C@@H]2C(=O)[C@]1(C)[C@H]3CC[C@@]1(C)[C@H](c2ccoc2)OC(=O)C[C@]14O | > 100 |  | > 100 | > 100 | > 100 | > 100 | > 100 | > 100 | > 100 | > 100 | > 100 |  | > 100 | > 100 | > 100 | > 100 | > 100 | > 100 | > 100
7 | O=C(O)C1(C(=O)O)CC1(C(=O)O)C(=O)O | > 100 | > 100 | > 100 | > 100 | > 100 | > 100 |  | > 100 | > 100 | > 100 | > 100 | > 100 | > 100 | > 100 | > 100 | > 100 | > 100 | > 100 | 
